# Measured values published in PubChem BioAssay AID588573 (Sanford-Burnham Center for Chemical Genomics, 2011).
# Active and inactive are the calls of the source. No rule for the calls is given here.
# Biological target: Caspase-3 (Homo sapiens) + Caspase-9 (Homo sapiens) (UniProt P42574+P55211)
# Assay: modulators of CASP3 activation by CASP9, concentration-response, specificity counterscreen for Apaf-1 activator project, biochemical, fluorescence readout, leucine zipper CASP9, ultra-high-throughput screening actives (AID 588573)
# Conditions: LZ-caspase-9/caspase-3 coupled fluorogenic activity assay
# Chain of Caspase-3 (Homo sapiens) + Caspase-9 (Homo sapiens) (P42574 whole entry, looked up): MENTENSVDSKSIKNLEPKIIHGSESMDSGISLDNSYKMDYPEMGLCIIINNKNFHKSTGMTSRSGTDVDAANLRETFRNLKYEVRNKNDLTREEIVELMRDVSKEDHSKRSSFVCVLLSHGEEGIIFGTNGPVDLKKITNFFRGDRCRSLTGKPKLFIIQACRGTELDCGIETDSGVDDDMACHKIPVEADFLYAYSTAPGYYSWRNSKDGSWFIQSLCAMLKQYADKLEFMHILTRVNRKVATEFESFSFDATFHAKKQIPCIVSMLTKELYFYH
# Chain of Caspase-3 (Homo sapiens) + Caspase-9 (Homo sapiens) (P55211 whole entry, looked up): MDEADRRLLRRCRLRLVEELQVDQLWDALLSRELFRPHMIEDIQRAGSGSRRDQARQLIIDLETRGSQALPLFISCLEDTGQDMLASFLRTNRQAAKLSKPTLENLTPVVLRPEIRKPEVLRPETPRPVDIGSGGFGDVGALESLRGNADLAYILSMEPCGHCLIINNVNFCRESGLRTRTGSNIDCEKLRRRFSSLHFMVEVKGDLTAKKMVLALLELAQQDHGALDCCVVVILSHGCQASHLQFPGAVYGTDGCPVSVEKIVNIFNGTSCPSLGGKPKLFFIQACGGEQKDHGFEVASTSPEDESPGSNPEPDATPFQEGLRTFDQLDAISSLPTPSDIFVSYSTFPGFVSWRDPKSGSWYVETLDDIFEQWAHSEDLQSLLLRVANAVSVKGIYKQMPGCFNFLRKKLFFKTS
SMILES,EC50,IC50 (inhibition of caspase signal)
CC(Cc1c[nH]c2ccccc12)C(=O)O (centres undefined),> 100 µM (inactive),–
C=CC1=C(C(=O)O)N2C(=O)[C@@H](NC(=O)/C(=N/OCC(=O)O)c3csc(N)n3)[C@H]2SC1,> 100 µM (inactive),–
CCOc1ccc(C(=O)/C=C/Nc2ccc(S(=O)(=O)N=C(N)N)cc2)cc1,> 100 µM (inactive),–
COC(=O)c1ccccc1-c1ccc(/C=C2\C(=O)N(c3ccccc3)N=C2c2ccccc2)o1,> 100 µM (inactive),–
C=C(C)C(=O)Nc1cccc(C2=NOC3(C2)C[C@@H](C(N)=O)N(C(=O)c2cc([N+](=O)[O-])cc([N+](=O)[O-])c2C)C3)c1 (some centres undefined),> 100 µM (inactive),–
CCOc1ccccc1NC(=O)CCS(=O)(=O)c1ccc(Br)cc1,> 100 µM (inactive),–
N#CCCn1cc(C(CC(=O)c2ccc(Br)cc2)C(=O)O)c2ccccc21 (centres undefined),> 100 µM (inactive),–
C=C(C)C(=O)Nc1cccc(C2=NOC3(C2)C[C@@H](C(N)=O)N(C(=O)C(=C)C)C3)c1 (some centres undefined),> 100 µM (inactive),–
C=C(C)C(=O)Nc1cccc(C2=NOC3(C2)C[C@@H](C(N)=O)N(C(=O)/C(C)=C/C)C3)c1 (some centres undefined),> 100 µM (inactive),–
C=C(C)C(=O)Nc1cccc(C2=NOC3(C2)C[C@H](C(N)=O)N(C(=O)c2ccccc2)C3)c1 (some centres undefined),> 100 µM (inactive),–
C=C(C)C(=O)Nc1cccc(C2=NOC3(C2)C[C@@H](C(N)=O)N(C(=O)CCCCC)C3)c1 (some centres undefined),> 100 µM (inactive),–
Cc1cc(C)n(CC(C)C(=O)O)n1 (centres undefined),> 100 µM (inactive),–
C=C(C)C(=O)Nc1cccc(C2=NOC3(C2)C[C@@H](C(N)=O)N(C(=O)/C=C/C=C/C)C3)c1 (some centres undefined),> 100 µM (inactive),–
COc1cc([N+](=O)[O-])ccc1NC(=O)COC(=O)c1ccc(NC(N)=O)cc1,> 100 µM (inactive),–
COc1ccc(/C=C2\SC(=S)N(CCC(=O)Nc3ccc(C(=O)O)cc3)C2=O)cc1OC,–,14.6 µM
C=C(C)C(=O)Nc1cccc(C2=NOC3(C2)C[C@@H](C(N)=O)N(C(=O)/C=C/CC)C3)c1 (some centres undefined),> 100 µM (inactive),–
O=C(Nc1nc2ccsc2c(=O)s1)c1ccco1,> 100 µM (inactive),–

# Results, then the compound that gave them:
EC50,IC50 (inhibition of caspase signal),SMILES
> 100 µM (inactive),–,CC(C)(CS(=O)(=O)[O-])NC(=O)CC[N+](C)(C)CCO
> 100 µM (inactive),–,C=C(C)C(=O)Nc1cccc(C2=NOC3(C2)C[C@H](C(N)=O)N(C(=O)/C=C/C)C3)c1 (some centres undefined)
> 100 µM (inactive),–,O=C1C2(CCCC13COC(c1ccc(O)cc1)OC3)COC(c1ccc(O)cc1)OC2 (centres undefined)
> 100 µM (inactive),–,CC(CNc1ccccc1O)C(=O)O (centres undefined)
–,15.6 µM,N#C/C(=C\c1ccc(OCc2ccc(Cl)cc2)cc1)C(=O)Nc1cccc(C(=O)O)c1
> 100 µM (inactive),–,COc1ccc([N+](=O)[O-])cc1NC(=O)CCS(=O)(=O)c1ccc(Br)cc1
> 100 µM (inactive),–,C=C(C)C(=O)Nc1cccc(C2=NOC3(C2)C[C@H](C(N)=O)N(C(=O)c2ccccc2C(=O)c2ccccc2)C3)c1 (some centres undefined)
> 100 µM (inactive),–,C=CC1=C(C(=O)O)N2C(=O)[C@@H](NC(=O)/C(=N\OCC(=O)O)c3csc(N)n3)[C@H]2SC1
–,23.6 µM,CCc1ccc(N=C2NC(=O)/C(=C/c3cc(Br)c(OCC(=O)O)c(OC)c3)S2)cc1
> 100 µM (inactive),–,CC(/C=C\c1cccnc1)=C/C(=O)O
> 100 µM (inactive),–,CCN(CC)CCOc1ccc2c(c1)C(=NNC(=O)c1ccccn1)c1cc(OCCN(CC)CC)ccc1-2
> 100 µM (inactive),–,O=C(CCS(=O)(=O)c1ccc(Br)cc1)NCc1ccco1
